Test results reported in patent US20080139648A1, “Product Containing Prostaglandin Having Fluorine Atom In Its Molecule” (Santen Pharmaceutical Co., Ltd., priority 2004, published 2008).

Test: storage stability test of eye drop in resin container (content by HPLC)
Type: physicochemical
From the text: The content of the present prostaglandin derivative refers to the ratio (%) of the concentration of the present prostaglandin derivative existing in the aqueous liquid preparation after a predetermined period of time to the original concentration of the present prostaglandin derivative existing in the aqueous liquid preparation when the prostaglandin-containing product is produced throughout the claims and the specification. For example, in the case where the present prostaglandin derivative is dissolved in water, it refers to the ratio (%) of the concentration of the present prostaglandin derivative existing in the aqueous solution after a predetermined period of time to the concentration of the present prostaglandin derivative dissolved in water.
A 5-ml eye drop resin container was obtained by injection blow molding of a propylene/ethylene random copolymer (containing an ethylene component in an amount of 3%).
The resin container obtained in the section of “2. Production of Resin Container” was subjected to a sterilization treatment with ethylene oxide gas (sterilization with ethylene oxide at a concentration of 20% (v/v), at a temperature of 40° C. and a relative humidity of 50% for 3 hours), and then, in the container, Eye drop 1 obtained in the section of “1. Preparation of Eye Drop” was charged. […] The concentration of the present compound in the container was measured by high performance liquid chromatography before the initiation of storage and after 30-day storage. The content of the present compound was calculated taking the concentration of the present compound at the time of initiation of storage as a standard (100%). Incidentally, each value in Table 1 is expressed as an average of three cases.
Except that the sterilization treatment with ethylene oxide gas was altered into a sterilization treatment with gamma rays (32 kGy), the content of the present compound was calculated in the same manner as in Example 1.
Except that the sterilization treatment with ethylene oxide gas was altered into a sterilization treatment with electron rays (23 kGy), the content of the present compound was calculated in the same manner as in Example 1.
Except that a container with no sterilization treatment was used as the container, the content of the present compound was calculated in the same manner as in Example 1.
Except that Eye drop 1 was altered into Eye drop 2, the content of latanoprost was calculated in the same manner as in Example 1.
Except that Eye drop 1 was altered into Eye drop 2 and the sterilization treatment with ethylene oxide gas was altered into a sterilization treatment with gamma rays (32 kGy), the content of latanoprost was calculated in the same manner as in Example 1. […]

[1] = sterilized container compared with container with no sterilization treatment

| content in the eye drop (container sterilized with gamma rays, electron rays or ethylene oxide gas) | content in the eye drop after a predetermined period of time [1] | content in the eye drop after a predetermined period of time (ethylene oxide gas sterilized container in comparison with gamma-ray or electron-ray sterilized container) | SMILES |
| --- | --- | --- | --- |
| did not decrease | comparable |  | CC(C)OC(=O)CCC/C=C\C[C@@H]1[C@@H](CC[C@@H](O)CCc2ccccc2)[C@H](O)C[C@@H]1O [latanoprost, 13,14-dihydro-17-phenyl-18,19,20-trinor-prostaglandin F2α isopropyl ester] |
|  | comparable | higher | CC(C)OC(=O)CCC/C=C\C[C@@H]1[C@@H](/C=C/C(F)(F)COc2ccccc2)[C@H](O)C[C@@H]1O [present compound, 16-phenoxy-15-deoxy-15,15-difluoro-17,18,19,20-tetranor-prostaglandin F2α isopropyl ester] |
